Where a name gives a salt, the structure may show the parent alone.
Assays:
[1] = biological target: T1, αvβ3 from human A375 cells (Homo sapiens, UniProt P05106+P06756); test: αvβ3 echistatin SPA binding assay; settings: purified αvβ3, labelled echistatin, WGA SPA beads
T1 construct: αvβ3 from human A375 cells was purified; endogenous in cells; host or cells: human A375 cells; receptor purified from the cells and used detergent-solubilised
Protocol: αvβ3 from human A375 cells was purified analogously to a procedure which was described by Wong et al. (Molecular Pharmacology, 50, 529-537 (1996)). 10 μl of αvβ3 (5 ng) in TBS pH 7.6, 2 mM CaCl2, 1 mM MgCl2, 1% n-octyl glucopyranoside (Sigma); 10 μl of test substance in TBS pH 7.6, 0.1% DMSO and 45 μl of TBS pH 7.6, 2 mM CaCl2, 1 mM MgCl2, 1 mM MnCl2 were in each case incubated at room temperature for 1 h. 25 μl of WGA SPA beads (Amersham, 4 mg/ml) and 10 μl of echistatin (0.1 μCi, Amersham, chloramine T-labelled) were then added in each case. After 16 hours at room temperature, the samples were measured in a scintillation measuring apparatus (Wallac 1450).

αvβ3 receptor = αvβ3 receptor (Homo sapiens, UniProt P05106+P06756); settings: disclosed in WO98/00395; cited from earlier work
Chain of αvβ3 receptor (P06756 31-889 limits assumed): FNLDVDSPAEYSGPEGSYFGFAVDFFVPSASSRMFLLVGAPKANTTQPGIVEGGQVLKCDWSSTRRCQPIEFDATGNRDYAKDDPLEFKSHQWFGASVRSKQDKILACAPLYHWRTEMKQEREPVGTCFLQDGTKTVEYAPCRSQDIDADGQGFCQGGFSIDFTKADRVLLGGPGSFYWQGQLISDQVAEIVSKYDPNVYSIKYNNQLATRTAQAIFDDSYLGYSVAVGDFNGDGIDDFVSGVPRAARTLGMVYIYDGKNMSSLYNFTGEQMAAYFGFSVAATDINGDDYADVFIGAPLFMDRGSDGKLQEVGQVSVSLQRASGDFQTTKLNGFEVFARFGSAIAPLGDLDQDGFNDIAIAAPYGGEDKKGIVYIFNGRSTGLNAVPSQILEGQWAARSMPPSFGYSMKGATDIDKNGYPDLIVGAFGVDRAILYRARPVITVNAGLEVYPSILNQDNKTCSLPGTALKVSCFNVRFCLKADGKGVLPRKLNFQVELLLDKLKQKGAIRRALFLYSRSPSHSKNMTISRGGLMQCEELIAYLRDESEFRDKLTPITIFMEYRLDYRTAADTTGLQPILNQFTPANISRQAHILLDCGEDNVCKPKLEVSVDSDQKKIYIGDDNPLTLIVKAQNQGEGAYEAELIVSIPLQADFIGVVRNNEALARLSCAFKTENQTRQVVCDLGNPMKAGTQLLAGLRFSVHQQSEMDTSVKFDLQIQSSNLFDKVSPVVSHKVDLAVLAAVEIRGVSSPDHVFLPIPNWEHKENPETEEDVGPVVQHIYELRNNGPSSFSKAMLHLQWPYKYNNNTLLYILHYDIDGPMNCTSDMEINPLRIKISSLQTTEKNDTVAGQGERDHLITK
Chain of αvβ3 receptor (P06756 891-1048 partner limits assumed): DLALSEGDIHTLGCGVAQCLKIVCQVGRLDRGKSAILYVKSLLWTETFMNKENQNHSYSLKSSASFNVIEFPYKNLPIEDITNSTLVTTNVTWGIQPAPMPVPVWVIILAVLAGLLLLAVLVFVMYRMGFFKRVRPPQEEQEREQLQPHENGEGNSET
Chain of αvβ3 receptor (P05106 27-788): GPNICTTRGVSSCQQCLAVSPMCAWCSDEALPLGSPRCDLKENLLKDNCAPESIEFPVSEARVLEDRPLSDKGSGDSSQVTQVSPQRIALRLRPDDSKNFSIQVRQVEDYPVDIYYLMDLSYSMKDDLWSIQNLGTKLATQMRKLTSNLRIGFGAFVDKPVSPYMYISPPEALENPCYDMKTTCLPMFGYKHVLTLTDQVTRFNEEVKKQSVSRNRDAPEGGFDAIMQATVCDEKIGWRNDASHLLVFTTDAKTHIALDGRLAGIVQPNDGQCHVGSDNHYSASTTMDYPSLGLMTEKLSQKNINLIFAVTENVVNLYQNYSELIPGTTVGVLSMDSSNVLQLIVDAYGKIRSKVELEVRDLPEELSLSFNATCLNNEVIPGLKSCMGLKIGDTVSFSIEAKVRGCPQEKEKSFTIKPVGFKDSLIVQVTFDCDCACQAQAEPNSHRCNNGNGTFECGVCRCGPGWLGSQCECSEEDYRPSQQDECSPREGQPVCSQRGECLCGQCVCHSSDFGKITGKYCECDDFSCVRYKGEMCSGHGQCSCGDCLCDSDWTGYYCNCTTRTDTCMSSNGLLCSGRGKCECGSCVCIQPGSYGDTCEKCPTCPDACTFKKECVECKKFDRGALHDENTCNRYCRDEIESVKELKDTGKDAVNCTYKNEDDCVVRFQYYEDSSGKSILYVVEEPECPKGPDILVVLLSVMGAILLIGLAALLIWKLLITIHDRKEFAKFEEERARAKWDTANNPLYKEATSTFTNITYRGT

T1 sequence (P06756 31-889 limits assumed): as the sequence (P06756 31-889 limits assumed) above
T1 sequence (P06756 891-1048 partner limits assumed): as the sequence (P06756 891-1048 partner limits assumed) above
T1 sequence (P05106 27-788): as the sequence (P05106 27-788) above

SMILES | IC50 [1] [nM] | IC50 (αvβ3 receptor) [nM]
CC1(C)C2CCC1(CS(=O)(=O)NC(Cc1ccc(OCCCC(=O)NC(=N)N)cc1)C(=O)O)C(=O)C2 (stereo not shown) [(I)] |  | 0.13
N=C(N)Nc1cccc(S(=O)(=O)Nc2cccc(C(CC(=O)O)NC(=O)CCc3ccccc3)c2)c1 (stereo not shown) [Example 6, 3-(3-[3-Guanidino-benzenesulphonylamino]-phenyl)-3-phenylpropionylamino-propionic acid] | 36.2 | 
N=C(N)Nc1cccc(S(=O)(=O)Nc2cccc(C(CC(=O)O)NS(=O)(=O)c3ccccc3)c2)c1 (stereo not shown) [Example 1, 3-Benzenesulphonylamino-3-[3-(3-guanidino-benzenesulphonylamino)-phenyl]-3-propionic acid, trifluoroacetic acid salt] | 19 | 
N=C(N)Nc1cccc(C(=O)Nc2cccc(C(CC(=O)O)NS(=O)(=O)c3ccccc3)c2)c1 (stereo not shown) [Example 2, 3-Benzenesulphonylamino-3-[3-(3-guanidino-benzoylamino)-phenyl]-propionic acid, trifluoroacetic acid salt] | 390 | 

More lines, in order of falling IC50 [1], values ahead:

IC50 [1] [nM] | SMILES | IC50 (αvβ3 receptor) [nM]
153 | Cc1cc(C)c(CC(=O)NC(CC(=O)O)c2cccc(NS(=O)(=O)c3cccc(NC(=N)N)c3)c2)c(C)c1 (stereo not shown) [Example 3, 3-(3-[3-Guanidinobenzenesulphonylamino]-phenyl)-3-(2,4,6-trimethylphenylacetylamino)-propionic acid, trfiluoroacetic acid salt] | 
115 | CCC(C(=O)NC(CC(=O)O)c1cccc(NS(=O)(=O)c2cccc(NC(=N)N)c2)c1)c1ccccc1 (mixture of isomers) [Example 7, 3-(3-[3-Guanidino-benzenesulphonylamino]-phenyl)-3-(2-phenylbutyrylamino)-propionic acid] | 
72.4 | N=C(N)Nc1cccc(S(=O)(=O)Nc2cccc(C(CC(=O)O)NC(=O)Cc3ccc(Cl)cc3Cl)c2)c1 (stereo not shown) [Example 5] | 
33 | N=C(N)Nc1cccc(COc2cccc(C(CC(=O)O)NS(=O)(=O)c3ccccc3)c2)c1 (stereo not shown) [Example 8, 3-Benzenesulphonylamino-3-[3-(3-guanidino-benzyloxy)-phenyl]-propionic acid] | 
12.8 | N=C(N)Nc1cccc(S(=O)(=O)Nc2cccc(C(CC(=O)O)NC(=O)c3ccccc3)c2)c1 (stereo not shown) [Example 4, 3-Benzoylamino-3-[3-(3-guanidino-benzenesulphonylamino)-phenyl]-propionic acid] | 
0.295 | O=C(O)CC(NS(=O)(=O)c1ccccc1)c1cccc(NS(=O)(=O)c2cccc(NC3=NCCN3)c2)c1 (stereo not shown) [Example 9] | 
